Like-named read-outs stand apart in the source and are kept apart here. Non-standard residues stand in square brackets, D forms with d. No end group written: not given here. pS = N[C@@H](COP(=O)(O)O)C(=O)O
Assays:
[1] = test system: Streptococcus mutans Ingbritt; test: Antibacterial planktonic assay (microplate growth assay); type: cell-based; settings: for MIC: pH 7.20, tested singly or in combination with a 1:1 ratio of zinc or calcium; for inhibition of S. mutans growth: growth pH 7.20, up to concentrations of 300 μM
Description: The oral opportunistic pathogen Streptococcus mutans Ingbritt was used in this study as an indicator strain. The antibacterial assay was conducted in 96 well plates and bacterial growth continuously monitored over 40 h, as previously described (Malkoski et al., 2001). Briefly, bacteria were cultured in Todd Hewitt Broth (36.4 g/l) containing Yeast extract (5.0 g/l) and 100 mM potassium phosphate with a pH of 6.3 or 7.2. The bacterial inocula were prepared by diluting exponentially growing cells in growth medium to give 2.7×10^4 viable cells/ml. In the bacterial growth assays test wells contained κ-casein-A(106-169) or κ-casein-B(106-169) at concentrations between 20 and 120 μM. these peptides were also tested in combination with zinc or calcium ions to give ratios of […]:divalent metal ion of 1:1 to 1:4. Synthetic […]κ-casein-A(138-158) and […]κ-casein-B(138-158) peptides were also tested in this assay. The plates were incubated at 37° C. and growth determined by measuring optical density (OD) at 620 nm using an iEMS microplate reader (Labsystems, OY Research Technologies Division).

[2] = test system: Streptococcus mutans Ingbritt; settings: S. mutans, pH 6.28; previous study (Malkoski et al., 2001); cited from earlier work
[3] = test system: S. mutans Ingbritt biofilm; test: Viability of S. mutans cultured as a biofilm in constant depth film fermenter (CDFF); type: cell-based, Streptococcus mutans
Description: A constant depth film fermenter (CDFF: Wimmpenny, Cardiff University, UK) was used for biofilm formation. The CDFF consists of a stainless steel disc rotating at a constant speed of 3 rpm containing 15 polytetrafluoroethylene (PTFE) pans each of which contain 5 plugs of 4.5 mm in diameter. The plugs were set to 0.4 mm below the surface of the steel disc. Inbuilt scrapers were used to maintain a constant biofilm depth of 0.4 mm. The scrapers are attached so that the stainless steel disc rotates under them; the scrapers are spring loaded so that they are pressed down against the pans. An anaerobic atmosphere was maintained in the CDFF by continuous gassing with 5% CO2 in N2. The CDFF was housed in a modified CO2 incubator, which was used to maintain a constant culture temperature of 37° C. A S. mutans Ingbritt batch culture in Todd Hewitt (35.4 g/l), Yeast Extract (8 g/L) broth (THYE) in exponential growth phase was used to inoculate the CDFF at a flow rate of 30 ml/h for 5 h. The growth media, THYE containing 0.1% (w/v) sucrose, was then pumped into the CDFF at a constant flow rate of 40 ml/h.
At specified times prior to and after treatment with solutions, plugs were removed from the CDFF, washed to remove planktonic bacteria and viable counts were performed to determine bacterial numbers. To assess the effect on cell viability of various solutions growth media addition to the CDFF was suspended for 10 min and replaced by the solution at a flow rate of 30 ml/h. After 10 min growth media addition was resumed. Solutions tested in the CDFF were: 2 mM Tris-HCl pH6.0; 10 mg/ml Kappacin preparation (see above) in 2 mM Tris-HCl pH 6.0; 10 mg/ml Kappacin preparation (see above) and 20 mM ZnCl2 in 2 mM Tris-HCl pH 6.0; 20 mM ZnCl2 in 2 mM Tris-HCl pH 6.0; 2 mM ZnCl2 in 2 mM Tris-HCl pH 6.0 and 0.05% chlorhexidine digluconate in deionized water.

[4] = test system: supragingival dental plaque; test: Clinical antiplaque trial, mouthrinse as only oral hygiene, Silness and Loe Plaque Index; type: in vivo, human
Source text: Ten subjects were recruited for the double-blind, cross-over study. Subjects were recruited from undergraduate students enrolled at the School of Dental Science, The University of Melbourne. The group consisted of 6 females and 4 males with a mean age of 21 years. Subjects were examined prior to the commencement of the trial and all were gauged to be of good health, having dentitions without unrestored carious lesions or evidence of moderate to severe gingivitis. The subjects had not used any dentifrices containing antimicrobial agents prior to commencement of the trial. Approval was obtained from the Human Research Ethics Committee of the University of Melbourne.
At the commencement of the trial, the subjects were instructed to cease all other forms of daily oral hygiene practices and to solely rely on the use of the allocated mouthrinse solution. Four solutions were tested as mouthrinses in this investigation: Solution A: Deionized water. B: 1% (w/v) Kappacin preparation in deionized water. C: 20 mM ZnCl in deionized water. D: 1% (w/v) Kappacin preparation and 20 mM ZnCl in deionized water. The pH of all solutions was adjusted to 6.9±0.1 using KOH. Subjects were instructed to rinse three times daily: morning, mid-day and evening with 15 ml of solution for a duration of one minute. Each trial session was for four days with a clinical evaluation at the end of the trial. The Silness and Loe Plaque Index (PI) was used to evaluate plaque (Silness and Loe, 1964). The gingival area of each tooth surface (distal, buccal, mesial and lingual) was given a score from 0-3. All teeth excluding third molars were scored at the conclusion of the trial. Following each trial session the subjects resumed their normal oral hygiene habits for a minimum of seven days prior to the next trial. Data were analysed using the nonparametric Wilcoxon rank test.

plaque [5] = settings: mouthrinse, Silness and Loe plaque index, Giertsen et al. (1988); cited from earlier work
plaque [6] = settings: double blind crossover trial, Addy et al., 1980; cited from earlier work

## AVESTVATLED[pS]PEVIESPP [Ser(P)^149κ-casein-A(138-158)]
[1]; S. mutans
  MIC: NI (No inhibition at concentrations up to 1 mM)
[1]
  inhibition of S. mutans growth: no inhibition
[2]
  MIC: 26 µM

## [Cl-].[Cl-].[Zn+2] [ZnCl2]
[1]; S. mutans
  MIC: 200 µM
[3]; 20 mM ZnCl2 in 2 mM Tris-HCl pH 6.0
  decrease in viable cell counts: 92%
[3]; 5 ml of 2 mM ZnCl2 in 2 mM Tris-HCl pH 6.0
  reduction of viable count: ~60%
[4]; four days mouthrinse as only oral hygiene
  plaque accumulation relative to water or other treatments (Wilcoxon rank test, posterior teeth plaque index scores): significantly (P<0.05) reduced
[4]; four days, 20 mM zinc chloride mouthrinse
  decrease in mean whole mouth plaque index scores: 6%
[4]; four days, 15 ml rinse three times daily, 1% (w/v) Kappacin and/or 20 mM ZnCl2, pH 6.9
  decrease in the mean Plaque Index Score of posterior teeth compared with water control: 9%
Plaque [5]
  increase in the tooth surfaces with no plaque compared with a water control: 9%

## [H]/N=C(\N/C(=N/[H])NCCCCCCNC(=N)NC(=N)Nc1ccc(Cl)cc1)Nc1ccc(Cl)cc1 [chlorhexidine digluconate]
[3]
  decrease in S. mutans cell viability: 48%
[3]; 0.05% (w/v) solution
  time after treatment with no significant difference to pre-treatment viability: 3.5 h

## CC[C@H](C)[C@H](NC(=O)[C@@H](NC(=O)[C@H](CCC(=O)O)NC(=O)[C@@H]1CCCN1C(=O)[C@H](COP(=O)(O)O)NC(=O)[C@H](C)NC(=O)[C@H](CCC(=O)O)NC(=O)[C@H](CC(C)C)NC(=O)[C@@H](NC(=O)[C@H](C)NC(=O)[C@@H](NC(=O)[C@@H](NC(=O)[C@H](CO)NC(=O)[C@H](CCC(=O)O)NC(=O)[C@@H](NC(=O)[C@H](C)N)C(C)C)[C@@H](C)O)C(C)C)[C@@H](C)O)C(C)C)C(=O)N[C@@H](CCC(=O)O)C(=O)N[C@@H](CO)C(=O)N1CCC[C@H]1C(=O)N1CCC[C@H]1C(=O)N[C@@H](CCC(=O)O)C(=O)O [Ser(P)^149κ-casein-B(138-158), Ala Val Glu Ser Thr Val Ala Thr Leu Glu Ala Ser(P) Pro Glu Val Ile Glu Ser Pro Pro]
[1]; S. mutans, growth pH 6.28, microplate growth assay
  calculated MIC: 44 µM
[1]
  inhibition of S. mutans growth: no inhibition

## O=C([O-])CC(O)(CC(=O)[O-])C(=O)[O-].O=C([O-])CC(O)(CC(=O)[O-])C(=O)[O-].[Zn+2].[Zn+2].[Zn+2] [Zinc citrate]
Plaque [6]
  reduction of plaque accumulation (Turesky plaque index): 5-8%

## [Ca+2].[Cl-].[Cl-] [CaCl2]
[1]; S. mutans
  MIC: NI (No inhibition at concentrations up to 1 mM)
[1]; alone, at concentrations up to 1 mM
  effect on S. mutans growth: no effect

— patent US8106152B2, “Antimicrobial composition” (Dairy Australia Limited, priority 2003, dated 2012)
